In patent US20200206233A1 (INTEGRAL BIOSCIENCES PRIVATE LIMITED, priority 2018, published 2020) one finds IC50 data, which are given here for 29 compounds.

Each structure is given as a SMILES string.

In this test the target is T1, IDH1 mutant (R132H) (Homo sapiens, UniProt O75874, R132H).
T1 construct: purchased BPS Bioscience 71099-2
T1 sequence (O75874 whole entry R132H): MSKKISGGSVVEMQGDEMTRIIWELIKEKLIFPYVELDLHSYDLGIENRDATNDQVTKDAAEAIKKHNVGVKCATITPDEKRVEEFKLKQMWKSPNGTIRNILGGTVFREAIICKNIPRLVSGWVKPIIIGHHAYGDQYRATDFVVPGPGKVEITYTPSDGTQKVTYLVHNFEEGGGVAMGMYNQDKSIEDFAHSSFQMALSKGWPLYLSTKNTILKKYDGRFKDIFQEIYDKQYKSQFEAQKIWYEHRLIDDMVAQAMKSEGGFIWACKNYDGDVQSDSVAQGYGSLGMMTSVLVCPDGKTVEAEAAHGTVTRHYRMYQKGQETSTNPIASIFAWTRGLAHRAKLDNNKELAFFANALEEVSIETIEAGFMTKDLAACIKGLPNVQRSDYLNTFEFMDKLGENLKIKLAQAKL
Briefly: Mutant IDH1-R132H Fluorescence Assay (Resazurin based). It counts as biochemical. Conditions: 10 nM IDH1 R132H, 4 mM α-ketoglutarate, NADPH, 1.5 h at room temperature. The procedure:
IC50 values of compounds against IDH1 mutant (R132H) was determined by Resazurin based Fluorescence assay. Assays were performed in Buffer (25 mM Tris HCl, 150 mM NaCl, 10 mM MgCl2, 0.03% BSA, 2 mM 1-mercaptoethanol) where total reaction volume was 12.5 μL in low-volume 384-well plates (Cat #4511, Corning). Serially diluted compounds (3-fold) were incubated with cocktail of α-ketoglutarate (4 mM; Cat #75892-25G, Sigma), NADPH ([…]; Cat # N1630-100MG, Sigma) and buffer for 5 min, following IDH1 R132H mutant (10 nM; Cat #71099-2, BPS Bioscience) was added and incubated in dark at room temperature for 1.5 h. After 1.5 h, 6.25 μL detection solution containing Resazurin ([…]; (Cat #62758-13-8, Sigma) and Diaphorase (40 ug/ml; Cat # D2197-300UN, Sigma) in buffer was added and incubated for 15 min. Readings were taken in a Synergy Neo Plate reader (BioTek, Winooski) at single excitation of 540 nm and emission at 590 nm respectively.
The % (percent) activity of test samples was calculated as (Sample−Min)×100/(Max−Min). [Max: DMSO control, complete reaction with enzyme with DMSO and Min: No enzyme with DMSO]. Percent inhibition (100−% activity) was fitted to the “four-parameter logistic model” in XLfit for determination of IC50 values.
Background: Alamar Blue is a resazurin reagent that responds to reducing activity.
Consider `CC(C)[C@H]1COC(=O)N1c1ncnc(N[C@H](C)c2ccc(Oc3ccccc3)cn2)n1` [Compound 1.18, (S)-4-isopropyl-3-(4-((R)-1-(5-phenoxypyridin-2-yl)ethylamino)-1,3,5-triazin-2-yl)oxazolidin-2-one], for which the IC50 (as a rule, the concentration needed to halve the response being measured) was more than 30 µM.

With `CC[C@H]1COC(=O)N1c1nc(C)nc(N[C@H](C)c2ccc(Oc3ccccc3)cn2)n1` [Compound 1.76, (S)-4-ethyl-3-(4-methyl-6-((R)-1-(5-phenoxypyridin-2-yl)ethylamino)-1,3,5-triazin-2-yl)oxazolidin-2-one], the IC50 was more than 23.3 µM.

Regarding `Cc1nc(N[C@@H](C)c2ccc(Oc3ccccc3)cc2)nc(N2C(=O)OCC2(C)C)n1` [Compound 1.110, (S)-4,4-dimethyl-3-(4-methyl-6-(1-(4-phenoxyphenyl)ethylamino)-1,3,5-triazin-2-yl)oxazolidin-2-one], the 50% inhibitory concentration (IC50) is 2.02 µM.

As to `CC(C)[C@H]1COC(=O)N1c1ncnc(N[C@H](C)c2ccc(N3CCN(C)CC3)cn2)n1` [Compound 1.25, (S)-4-isopropyl-3-(4-((R)-1-(5-(4-methylpiperazin-1-yl)pyridin-2-yl)ethylamino)-1,3,5-triazin-2-yl)oxazolidin-2-one], the IC50 was more than 30 µM.

With `CC[C@H]1COC(=O)N1c1nc(C)nc(N[C@@H](C)c2ccc(C(=O)Nc3ccccc3)cc2)n1` [Compound 1.103, 4-((S)-1-(4-((S)-4-ethyl-2-oxooxazolidin-3-yl)-6-methyl-1,3,5-triazin-2-ylamino)ethyl)-N-phenylbenzamide], the concentration for half-maximal inhibition (IC50) is more than 30 µM.

Take `CC(C)[C@H]1COC(=O)N1c1ncnc(N[C@H](C)c2cc3cc(Cl)ccc3[nH]c2=O)n1` [Compound 1.22, (S)-3-(4-((R)-1-(6-chloro-2-oxo-1,2-dihydroquinolin-3-yl)ethylamino)-1,3,5-triazin-2-yl)-4-isopropyloxazolidin-2-one]: the IC50 was more than 30 µM.

`CC[C@H]1COC(=O)N1c1nc(C)nc(N[C@@H](C)c2ccc(CN3CCN(C(C)=O)CC3)cc2)n1` [Compound 1.98, (S)-3-(4-((S)-1-(4-((4-acetylpiperazin-1-yl)methyl)phenyl)ethylamino)-6-methyl-1,3,5-triazin-2-yl)-4-ethyloxazolidin-2-one]: the IC50 worked out at 21.4 µM.

As to `C[C@@H](Nc1ncnc(N2CCOC2=O)n1)c1ccc(Oc2ccccc2)cc1` [Compound 1.20], the half-maximal inhibitory concentration (IC50) was more than 30 µM.

With `CC[C@H]1COC(=O)N1c1nc(C)nc(N[C@@H](C)c2cc3cc(OC)ccc3[nH]c2=O)n1` [Compound 1.55, (S)-4-ethyl-3-(4-((S)-1-(6-methoxy-2-oxo-1,2-dihydroquinolin-3-yl)ethylamino)-6-methyl-1,3,5-triazin-2-yl)oxazolidin-2-one], the IC50 amounted to 1.25 µM.

For `CC[C@H]1COC(=O)N1c1nc(C)nc(N[C@@H](C)c2ccc3c(ccn3-c3ccccc3)c2)n1` [Compound 1.90, (S)-4-ethyl-3-(4-methyl-6-((S)-1-(1-phenyl-1H-indol-5-yl)ethylamino)-1,3,5-triazin-2-yl)oxazolidin-2-one], the IC50 amounted to 1.54 µM.

For the compound `CC[C@H]1COC(=O)N1c1nc(C)nc(N[C@H](C)c2ccc(Oc3ccc(Cl)cc3)c(C)n2)n1` [Compound 1.97, (S)-3-(4-((R)-1-(5-(4-chlorophenoxy)-6-methylpyridin-2-yl)ethylamino)-6-methyl-1,3,5-triazin-2-yl)-4-ethyloxazolidin-2-one], the 50% inhibitory concentration (IC50) was more than 30 µM.

`CC[C@H]1COC(=O)N1c1nc(C)nc(N[C@@H](C)c2ccc(Oc3ccc(Cl)cc3)c(C)n2)n1` [Compound 1.96, (S)-3-(4-((S)-1-(5-(4-chlorophenoxy)-6-methylpyridin-2-yl)ethylamino)-6-methyl-1,3,5-triazin-2-yl)-4-ethyloxazolidin-2-one]: the IC50 stood at 3.83 µM.

As for `CC[C@H]1COC(=O)N1c1nc(C)nc(N[C@H](C)c2ccc(Oc3ccc(F)cc3Br)cc2)n1` [Compound 1.79, (S)-3-(4-((R)-1-(4-(2-bromo-4-fluorophenoxy)phenyl)ethylamino)-6-methyl-1,3,5-triazin-2-yl)-4-ethyloxazolidin-2-one], the IC50 amounted to 2.72 µM.

On to `CC[C@H]1COC(=O)N1c1nc(C)nc(N[C@@H](C)c2cc3cc(-c4ccc(Cl)cc4)ccc3[nH]c2=O)n1` [Compound 1.106, (S)-3-(4-((S)-1-(6-(4-chlorophenyl)-2-oxo-1,2-dihydroquinolin-3-yl)ethylamino)-6-methyl-1,3,5-triazin-2-yl)-4-ethyloxazolidin-2-one], for which the IC50 was more than 30 µM.

On to `CC[C@H]1COC(=O)N1c1nc(C)nc(N[C@H](C)c2ccc(Sc3ccc(F)cc3)cc2)n1` [Compound 1.91, (S)-4-ethyl-3-(4-((R)-1-(4-(4-fluorophenylthio)phenyl)ethylamino)-6-methyl-1,3,5-triazin-2-yl)oxazolidin-2-one], for which the IC50 is more than 30 µM.

For `CC(C)[C@H]1COC(=O)N1c1ncnc(N[C@H](C)c2cn(-c3ccc(Cl)cc3)cn2)n1` [Compound 1.14, (S)-3-(4-((R)-1-(1-(4-chlorophenyl)-1H-imidazol-4-yl)ethylamino)-1,3,5-triazin-2-yl)-4-isopropyloxazolidin-2-one], the IC50 was 24.5 µM.

For the compound `C[C@@H](Nc1ncnc(N2C(=O)OC[C@@H]2C)n1)c1ccc(Oc2ccccc2)cc1` [Compound 1.17, (S)-4-methyl-3-(4-((R)-1-(4-phenoxyphenyl)ethylamino)-1,3,5-triazin-2-yl)oxazolidin-2-one], the IC50 is more than 30 µM.

For the compound `CC[C@H]1COC(=O)N1c1nc(C)nc(N[C@@H](C)c2ccc(Oc3ccccc3)nc2)n1` [Compound 1.77, (S)-4-ethyl-3-(4-methyl-6-((S)-1-(6-phenoxypyridin-3-yl)ethylamino)-1,3,5-triazin-2-yl)oxazolidin-2-one], the half-inhibitory concentration (IC50) was found to be 5.95 µM.

Take `CC[C@H]1COC(=O)N1c1nc(C)nc(N[C@@H](C)c2ccc(Nc3ccccc3)cc2)n1` [Compound 1.89, (S)-4-ethyl-3-(4-methyl-6-((S)-1-(4-(phenylamino)phenyl)ethylamino)-1,3,5-triazin-2-yl)oxazolidin-2-one]: the concentration for half-maximal inhibition (IC50) turned out to be 1.42 µM.

As to `CC[C@H]1COC(=O)N1c1nc(C)nc(N[C@@H](C)c2cnc3ccc(Cl)nn23)n1` [Compound 1.69, (S)-3-(4-((S)-1-(6-chloroimidazo[1,2-b]pyridazin-3-yl)ethylamino)-6-methyl-1,3,5-triazin-2-yl)-4-ethyloxazolidin-2-one], the half-maximal inhibitory concentration (IC50) is more than 30 µM.

With `CC[C@H]1COC(=O)N1c1nc(C)nc(NC(C)c2cn(-c3ccc(Cl)cc3)cn2)n1` (single isomer, unassigned) [Compound 1.51], the IC50 was more than 22.9 µM.

On to `CC[C@H]1COC(=O)N1c1nc(C)nc(N[C@H](C)c2cnc3ccc(Cl)nn23)n1` [Compound 1.70, (S)-3-(4-((R)-1-(6-chloroimidazo[1,2-b]pyridazin-3-yl)ethylamino)-6-methyl-1,3,5-triazin-2-yl)-4-ethyloxazolidin-2-one], for which the IC50 was more than 30 µM.

On to `Cc1nc(N[C@@H](C)c2ccc(Oc3ccccc3)cc2)nc(N2C(=O)OC[C@@H]2C)n1` [Compound 1.65, (S)-4-methyl-3-(4-methyl-6-((S)-1-(4-phenoxyphenyl)ethylamino)-1,3,5-triazin-2-yl)oxazolidin-2-one], for which the half-maximal inhibitory concentration (IC50) turned out to be 2.65 µM.

Turning to `CC[C@H]1COC(=O)N1c1nc(C)nc(N[C@@H](C)c2cc(C)c(-c3ccnc(C(F)(F)F)c3)cn2)n1` [Compound 1.54, (S)-4-ethyl-3-(4-methyl-6-((S)-1-(4-methyl-2′-(trifluoromethyl)-3,4′-bipyridin-6-yl)ethylamino)-1,3,5-triazin-2-yl)oxazolidin-2-one], the half-inhibitory concentration (IC50) was found to be 1.21 µM.

Regarding `CC[C@H]1COC(=O)N1c1nc(C)nc(N[C@H](C)c2cc3cc(Cl)ccc3[nH]c2=O)n1` [Compound 1.39, (S)-3-(4-((R)-1-(6-chloro-2-oxo-1,2-dihydroquinolin-3-yl)ethylamino)-6-methyl-1,3,5-triazin-2-yl)-4-ethyloxazolidin-2-one], the half-maximal inhibitory concentration (IC50) is more than 30 µM.

Turning to `CC[C@H]1COC(=O)N1c1nc(N[C@@H](C)c2ccc(Oc3ccccc3)cc2)nc(N(C)C)n1` [Compound 1.63, (S)-3-(4-(dimethylamino)-6-((S)-1-(4-phenoxyphenyl)ethylamino)-1,3,5-triazin-2-yl)-4-ethyloxazolidin-2-one], the IC50 came out at 2.4 µM.

In the case of `CC[C@H]1COC(=O)N1c1nc(C)nc(N[C@H](C)c2ccc(OCc3ccccc3)cc2)n1` [Compound 1.72, (S)-3-(4-((R)-1-(4-(benzyloxy)phenyl)ethylamino)-6-methyl-1,3,5-triazin-2-yl)-4-ethyloxazolidin-2-one], the concentration for half-maximal inhibition (IC50) is more than 30 µM.

For `CC[C@H]1COC(=O)N1c1nc(C)nc(N[C@@H](C)c2cc3ccccc3[nH]c2=O)n1` [Compound 1.45, (S)-4-ethyl-3-(4-methyl-6-((S)-1-(2-oxo-1,2-dihydroquinolin-3-yl)ethylamino)-1,3,5-triazin-2-yl)oxazolidin-2-one], the concentration for half-maximal inhibition (IC50) is 1.79 µM.

Turning to `CC[C@H]1COC(=O)N1c1nc(C)nc(N[C@@H](C)c2ccc(OCc3ccccc3)cc2)n1` [Compound 1.73, (S)-3-(4-((S)-1-(4-(benzyloxy)phenyl)ethylamino)-6-methyl-1,3,5-triazin-2-yl)-4-ethyloxazolidin-2-one], the concentration for half-maximal inhibition (IC50) turned out to be 15.4 µM.
